Assay results from patent publication US20200407717A1, “METHODS OF MODULATING ANTISENSE ACTIVITY” (Ionis Pharmaceuticals, Inc., priority 2018, published 2020).
In the oligonucleotide strings, read from the 5' end, every base follows the letter of its sugar. An asterisk marks phosphorothioate; unmarked linkages are phosphodiester. Other units and linkages are bracketed, terminal groups are in braces. A string of capitals states the bases alone. e = 2'-O-(2-methoxyethyl) (MOE); {AF594} = Alexa Fluor 594 dye; k = constrained ethyl (cEt); {FITC} = fluorescein label; [5mC] = 5-methylcytosine; d = 2'-deoxy (DNA)

How the values were obtained:
[1] = biological target: T1, EGFR (Homo sapiens, UniProt P00533); experiment: Direct NanoBRET binding assay; set-up: made in house; host or cells: HEK293 cells; conditions: Direct BRET, AF594-labeled oligonucleotide 0.1-10,000 nM
Description: (§1) NanoBRET (bioluminescence resonance energy transfer) binding assays were performed as described in Vickers and Crooke. PLOS One, 11(8), (2016). An EGFR NLuc construct was prepared by first amplifying human EGFR from the full length cDNA clone (Origene RC217223) with forward PCR primer 5′-[…]-3′ (SEQ ID NO: 1) and reverse PCR primer 5′-[…] (SEQ ID NO: 2). The amplified product was ligated into the NheI and XhoI sites of the NanoLuc expression vector pFC32K Nluc CMV-Neo (Promega). Protein was expressed in HEK293 cells and isolated using Protein G magnetic beads. For competitive BRET, the Alexafluor594-labeled modified oligonucleotide 766636 was diluted into water in opaque white 96-well plates at 10 nM and competed with 0.1-10,000 nM of unlabeled modified oligonucleotide. […] of 2× binding buffer containing […] (relative luminescence units) beads/well was added and plates were shaken for 10 minutes at room temperature. Nanoluciferase activity and BRET were measured in a Glowmax Discover plate reader and EC50 values, shown in the tables below, were calculated using GraphPad Prism. For direct BRET, Alexafluor594 modified nucleotides were diluted at 0.1-10,000 nM and experiments were performed as described above.

[2] = biological target: T1, EGFR; experiment: Pull-down assay in the presence of EGF; type: binding; set-up: endogenous in cells; host or cells: A431 cells
Description: A431 cells were treated with 100 ng/mL, 200 ng/mL, or 400 ng/mL EGF and then lysed. The cell lysates were mixed with beads bound to compound no. 451104, as prepared as in Example 1. Proteins were eluted with compound no. 116847 and run on a SDS-PAGE followed by western blot, as in Example 1. The same membrane was sequentially blotted for total EGFR (T-EGFR), phosphorylated EGFR (P-EGFR, ab205827, Abcam), nucleolin (ab22758, Abcam), and TCP1β. […] 451104 to EGFR.
In a similar experiment in which EGF was added after cell lysis, A431 cells were lysed and mixed with beads bound to compound no. 451104. Varying concentrations of EGF were added during the elution step with compound no. 116847.

[3] = system: EGFR; experiment: Pulse-chase EGFR synthesis and degradation, A431 cells; type: cell-based
Description: In order to test the effects of a PS-ASO on EGFR synthesis and degradation, A431 cells were incubated with either compound no. 116847 or no PS-ASO compound for 16 hours. A pulse-chase protocol was then performed in which the cells were incubated for 20 minutes in cysteine and methionine free media followed by incubation with [^35S]-Met and [^35S]-Cys in order to analyze newly synthesized protein. Cell samples were collected in RIPA buffer after 50 minutes (FIG. 6A) or at the times indicated in the tables below, and cell lysates were immunoprecipitated with EGFR antibody or s100a10 antibody (610071, BD Bioscience). The resulting, labeled immunocomplexes were resolved by SDS-PAGE and visualized by autoradiography using phosphoimager. FIG. 6A and Table 13 show the levels of nascent EGFR protein and nascent s100a10, a control protein. […] 116847 relative to cells that were not incubated with an ASO.

[4] = system: EGF-EGFR signaling; experiment: EGFR signaling western blot (p-EGFR, p-ERK), A431 cells; type: cell-based
Description: In order to test the effects of a PS-ASO on EGFR signaling, A431 cells were incubated with compound no. 116847 or no PS-ASO compound for 16 hours. All cells were then treated with EGF prior to being subjected to the pulse-chase protocol described above. Cell lysates were run on a SDS-PAGE gel and analyzed by sequential western blot for phosphorylated EGFR (P-EGFR), total EGFR (T-EGFR), phosphorylated ERK (P-ERK), and total ERK (T-ERK) using the antibodies described above for EGFR, 4370 for P-ERK (Cell Signaling Technology), and 4695 for T-ERK (Cell Signaling Technology).
110080, 25690, 25699, 395251, or 395254 at 2 μM for 16 hours prior to carrying out the pulse-chase experiment described above.

[5] = biological target: T1, EGFR; experiment: Competitive NanoBRET binding assay; set-up: made in house; host or cells: HEK293 cells; conditions: Competitive BRET vs 10 nM AF594-labeled 766636
Description: as §1

[6] = biological target: T1, EGFR; experiment: Competitive BRET in absence or presence of exogenous EGF; type: binding; set-up: made in house; host or cells: HEK293 cells
Description: as §1
The binding affinities for EGFR of PS-ASOs with various sugar modifications were measured with competitive BRET, as described in Example 1. 10 nM compound no. […]

[7] = biological target: T2, Purified recombinant EGF (Homo sapiens, UniProt P01133); experiment: Membrane binding assay, EGF; conditions: EGF 3 nM to 3 μM
T2 construct: purchased ThermoFisher PHG0311L
T2 sequence (P01133 971-1023 limits assumed): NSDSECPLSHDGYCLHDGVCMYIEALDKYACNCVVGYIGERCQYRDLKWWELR
Description: (§2) A membrane binding assay was performed to test the binding affinities of modified oligonucleotides to EGF and EGFR. Purified recombinant EGF (PHG0311L, ThermoFisher) or EGFR protein (PV3872, ThermoFisher) were incubated with FITC-labeled phosphorothioate oligonucleotide, compound no. 256903 or FITC-labeled phosphate oligonucleotide, PO-ASO, in binding buffer (20 mM Tris-HCl, pH 7.5, 150 mM NaCl, 1 mM DTT, 10% glycerol) for 1 hr at 37° C. Each reaction contained purified EGF at 3 nM to 3 μM or recombinant EGFR at 5 nM to 150 nM. Samples were loaded onto a hyband ECL nitrocellulose membrane (GE Healthcare) and soaked in wash buffer (20 mM Tris-HcCl, pH 7.5, 250 mM NaCl). Protein-bound ASOs were transferred to the membrane by applying a vaccum in a 96-well Bio-Rad Bio-Dot apparatus. After washing, membranes were air-dried and scanned using a phoshoimager (GE Healthcare). Kds were calculated for compound no. 256903 using Prism. The results below represent an average of three replicate experiments. […] In contrast, compound no. 256903 bound to both EGF and EGFR, with a higher affinity for EGFR than for EGF.

[8] = biological target: T1, EGFR; experiment: Membrane binding assay, EGFR; set-up: purchased ThermoFisher PV3872; conditions: EGFR 5 nM to 150 nM
Description: as §2

AF594-GksGksTks^mCdsGdsAds^mCds^mCdsGdsAdsAdsGdsTds^mCksAksTk (antisense GGTCGACCGAAGTCAT; 5'-AF594 label, cEt/MOE, 5-methylC, phosphorothioate, chemistry not fully specified) [compound 1024788]
EC50 [1]: 525 nM

AF594-GksGks^mCdsTdsAds^mCdsTdsAds^mCdsGds^mCds^mCdsGdsTks^mCksAk (antisense {AF594}-kG*kG*d[5mC]*dT*dA*d[5mC]*dT*dA*d[5mC]*dG*d[5mC]*d[5mC]*dG*kT*k[5mC]*kA) [compound 936533]
EC50 [1]: 551 nM

AF594-Gks^mCksAksTdsGdsTdsTds^mCdsTds^mCddsAds^mCdsAdsTksTksAk (antisense {AF594}-kG*k[5mC]*kA*dT*dG*dT*dT*d[5mC]*dT*d[5mC]*dA*d[5mC]*dA*kT*kT*kA) [compound 1055615]
EC50 [1]: 746 nM

AF594-^mCes^mCesTesTes^mCes^mCds^mCdsTdsGdsAdsAdsGdsGdsTdsTds^mCes^mCesTes^mCes^mCe (antisense {AF594}-e[5mC]*e[5mC]*eT*eT*e[5mC]*d[5mC]*d[5mC]*dT*dG*dA*dA*dG*dG*dT*dT*e[5mC]*e[5mC]*eT*e[5mC]*e[5mC]) [compound 1024789]
EC50 [1]: 202 nM

Biotin-TEG-^mCesTesGes^mCesTesAdsGds^mCds^mCdsTds^mCds^ioUdsGdsGdsAdsTesTGesTesGesAe [compound 451104]
competition by exogenous EGF for binding to EGFR ([2]; A431 cells treated with 100, 200 or 400 ng/mL EGF, then lysed): did not compete | recovery of EGFR, nucleolin, or TCP1β from the beads on direct addition of EGF ([2]; EGF added to cell lysates during elution): did not significantly alter

CTGCTAGCCTCTGGATTTGA (sugars from the 5' end e5 d10 e5, all phosphorothioate, methylation of C not given here) [compound 116847, 5-10-5 2′-MOE gapmer, phosphorothioate]
EGFR synthesis and degradation ([3]; 16 hours incubation, relative to cells not incubated with an ASO): unchanged | Relative Abundance of EGFR (%) ([3]; Time 0 hr): 103% | Relative Abundance of EGFR (%) ([3]; Time 4 hr): 91% | Relative Abundance of EGFR (%) ([3]; Time 16 hr): 69% | Relative Abundance of EGFR (%) ([3]; Time 24 hr): 54% | EGF-EGFR signaling ([4]; 16 hours incubation, then EGF): not affected | p-EGFR (%) ([4]; Time 0.5 hr): 89% | p-ERK (%) ([4]; Time 0.5 hr): 102% | p-EGFR (%) ([4]; Time 1 hr): 76% | p-ERK (%) ([4]; Time 1 hr): 94% | p-EGFR (%) ([4]; Time 2 hr): 85% | p-ERK (%) ([4]; Time 2 hr): 85% | p-EGFR (%) ([4]; Time 4 hr): 55% | p-ERK (%) ([4]; Time 4 hr): 87% | EC50 ([5]; Table 5): 181 nM | EC50 ([5]; Table 6): 1660 nM | Bret Ratio (% Max) ([6]; 0.01 nM, EGF added 0): 15.0 % Max | Bret Ratio (% Max) ([6]; 0.01 nM, EGF added 100 ng/mL): 13.3 % Max | Bret Ratio (% Max) ([6]; 0.03 nM, EGF added 0): 15.4 % Max | Bret Ratio (% Max) ([6]; 0.03 nM, EGF added 100 ng/mL): 12.4 % Max | Bret Ratio (% Max) ([6]; 0.1 nM, EGF added 0): 16.2 % Max | Bret Ratio (% Max) ([6]; 0.1 nM, EGF added 100 ng/mL): 13.2 % Max | Bret Ratio (% Max) ([6]; 0.30 nM, EGF added 0): 19.6 % Max | Bret Ratio (% Max) ([6]; 0.30 nM, EGF added 100 ng/mL): 15.1 % Max | Bret Ratio (% Max) ([6]; 1.0 nM, EGF added 0): 26.1 % Max | Bret Ratio (% Max) ([6]; 1.0 nM, EGF added 100 ng/mL): 18.0 % Max | Bret Ratio (% Max) ([6]; 3.0 nM, EGF added 0): 32.6 % Max | Bret Ratio (% Max) ([6]; 3.0 nM, EGF added 100 ng/mL): 24.2 % Max | Bret Ratio (% Max) ([6]; 10.0 nM, EGF added 0): 41.8 % Max | Bret Ratio (% Max) ([6]; 10.0 nM, EGF added 100 ng/mL): 30.7 % Max | Bret Ratio (% Max) ([6]; 30.0 nM, EGF added 0): 52.8 % Max | Bret Ratio (% Max) ([6]; 30.0 nM, EGF added 100 ng/mL): 39.7 % Max | Bret Ratio (% Max) ([6]; 100 nM, EGF added 0): 64.1 % Max | Bret Ratio (% Max) ([6]; 100 nM, EGF added 100 ng/mL): 54.7 % Max | Bret Ratio (% Max) ([6]; 300 nM, EGF added 0): 70.8 % Max | Bret Ratio (% Max) ([6]; 300 nM, EGF added 100 ng/mL): 63.8 % Max | Bret Ratio (% Max) ([6]; 1000 nM, EGF added 0): 82.9 % Max | Bret Ratio (% Max) ([6]; 1000 nM, EGF added 100 ng/mL): 77.4 % Max | Bret Ratio (% Max) ([6]; 3000 nM, EGF added 0): 99.5 % Max | Bret Ratio (% Max) ([6]; 3000 nM, EGF added 100 ng/mL): 94.2 % Max

FITC-^mCeoTeoGeo^mCeoTeoAdoGdo^mCds^mCdoTdo^mCdoTdoGdoGdoAdoTeoTeoTeoGeoAe (antisense {FITC}-e[5mC]eTeGe[5mC]eTdAdGd[5mC]*d[5mC]dTd[5mC]dTdGdGdAeTeTeTeGeA) [PO-ASO, FITC-labeled phosphate oligonucleotide]
interaction with EGF [7]: did not appreciably interact | interaction with EGFR [8]: did not appreciably interact
